Experimental data: patent publication US9464064B2, “HCV helicase inhibitors and methods of use thereof” (University of Kansas, priority 2011, dated 2016)

Target: T1, HCV NS3 helicase NS3h_1b(con1) (Hepatitis C virus genotype 1b, UniProt Q9WMX2)
T1 construct: truncated C-terminally His-tagged NS3 proteins lacking the N-terminal protease, called NS3h; His-tag (C); made in house
Assay: MBHA screen of NCI mechanistic set library at 20 μM (percent inhibition, compound interference)
Format: biochemical
Conditions: compounds at 20 μM; for Inh. (%) (Inhibition): calculated from Equation 1
In short: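 Molecular beacon-based DNA unwinding assay; compounds screened at 20 μM in triplicate, with DMSO-only negative and 500 nM dT20 positive controls. Fluorescence (ex 643/em 670 nm) was read before and 30 min after adding ATP to 1 mM. Percent inhibition came from the change relative to DMSO controls; interference from pre-ATP fluorescence versus DMSO controls.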

[1] = MBHA with DNA substrate, assay interference calculated with Equation 2
[2] = assay interference calculated with Equation 2 (fluorescence vs DMSO-only controls before ATP)

T1 sequence (Q9WMX2 1192-1657): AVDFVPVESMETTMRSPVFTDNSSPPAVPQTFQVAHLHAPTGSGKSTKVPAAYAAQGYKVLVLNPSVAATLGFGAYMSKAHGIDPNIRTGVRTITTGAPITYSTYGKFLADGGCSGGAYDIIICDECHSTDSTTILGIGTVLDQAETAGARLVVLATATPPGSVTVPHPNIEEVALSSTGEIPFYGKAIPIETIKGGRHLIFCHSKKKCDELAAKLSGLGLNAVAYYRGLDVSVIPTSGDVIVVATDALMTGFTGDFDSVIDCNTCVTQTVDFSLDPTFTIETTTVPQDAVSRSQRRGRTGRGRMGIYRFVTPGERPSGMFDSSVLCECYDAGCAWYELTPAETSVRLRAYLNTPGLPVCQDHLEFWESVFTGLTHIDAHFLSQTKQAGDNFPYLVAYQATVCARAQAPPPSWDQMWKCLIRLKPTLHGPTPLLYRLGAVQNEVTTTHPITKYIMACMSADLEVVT

Compound | Int.* (Ratio) (Interference) [1] | Inh. (%) (Inhibition) (MBHA with DNA substrate) | Inh. (%) (Inhibition) (MBHA with a DNA substrate) | Int.* (Ratio) (Interference) [2]
Cn1ncc2cc3c(Nc4ccc(Cl)cc4)cccc3nc21 [Compound 622732] | 0.92 | 27.4 | – | –
Cc1cc(Cl)ccc1N1C(=O)C(=O)C(c2nc3ccccc3o2)C(=O)C1=O [Compound 623051] | 0.92 | −10.9 | – | –
COc1ccc2nc(NC(=O)C(=O)CC(=O)c3ccc(Cl)cc3)sc2c1 [Compound 623059] | 0.94 | −8.7 | – | –
O=C(Nc1ccccc1-c1nn(C(=S)Nc2ccccc2)c(=S)n(C(=S)Nc2ccccc2)c1=O)C(F)(F)F [Compound 623093] | – | – | −4.2 | 0.87
CN(C)c1ccc(/C=c2/sc3nc(=O)c(-c4ccccc4NC(=O)C(F)(F)F)nn3c2=O)cc1 [Compound 623095] | 0.81 | −15.3 | – | –
CC(=O)OCc1c2ccccc2c(C)c2c1cc(F)c1ccccc12 [Compound 623135] | 0.87 | 36.6 | – | –
CCCCCCCCCCCCCCCCCCOCC(COCCOCC[N+]1(CCCCCC(=O)[O-])CCCC1)Oc1ncccn1 (centres unmarked) [Compound 623527] | – | – | −21.1 | 0.98
COC(=O)c1ccccc1OCc1cc(=O)oc2ccc(C)cc12 [Compound 623637] | – | – | −3.5 | 0.97
CCOC(=O)C1=C(O)CSC1=Nc1ccc(N=C2SCC(O)=C2C(=O)OCC)cc1 [Compound 623746] | – | – | −29.6 | 0.99
Cc1ccc(S(=O)(=O)SC/C=C/CSS(=O)(=O)c2ccc(C)cc2)cc1 [Compound 624158] | – | – | 9.2 | 0.90
O=S(=O)(O)SC/C=C/CSS(=O)(=O)O [Compound 624161] | 1.03 | −8.2 | – | –
Cl.NCCSSCc1ccccc1CSSCCN [Compound 624169] | – | – | 7.7 | 0.96
CCCCCCCCCCNCCSSCc1ccc(Cl)cc1.Cl [Compound 624206] | 0.81 | 0.1 | – | –
CC12CC(Br)(Br)C(=O)C3C1CCCC32 [Compound 624358] | – | – | −4.4 | 1.05
Cc1[nH]c(=O)nc(N/N=C/c2ccc(Cl)cc2)c1C(=O)Nc1ccc(Cl)cc1 [Compound 624947] | 0.86 | −14.2 | – | –
C=CCOC1OC(CO[Si](C)(C)C(C)(C)C)C(OCc2ccccc2)C(OCc2ccccc2)C1OCc1ccccc1 (centres unmarked) [Compound 624953] | 0.90 | −7.5 | – | –
O=c1ncccn1C1OC(CO)C(O)C1F (centres unmarked) [Compound 625355] | 1.05 | −10.4 | – | –
Fc1cccc(Cl)c1C1SCc2nc3ccccc3n21 (centres unmarked) [Compound 625483] | – | – | 12.0 | 0.93
Fc1cccc(F)c1C1SCc2nc3ccccc3n21 (centres unmarked) [Compound 625487] | 1.01 | −0.1 | – | –
COc1ccc2cccc(C(=N)c3ccc(C)c4c3CCC4)c2c1 [Compound 625590] | 0.95 | 14.3 | – | –
Cc1ccccc1NC(=O)/C=N/O [Compound 625639] | 1.09 | −17.7 | – | –
Cc1cc([N+](=O)[O-])ccc1Nc1cccc(Cl)c1C [Compound 625641] | – | – | −37.8 | 1.20

Compound | Int.* (Ratio) (Interference) [1] | Inh. (%) (Inhibition) (MBHA with DNA substrate) | Inh. (%) (Inhibition) (MBHA with a DNA substrate) | Int.* (Ratio) (Interference) [2]
C1CN(c2nnc(N3CCC3)nn2)C1 [Compound 625748] | 0.94 | −11.6 | – | –
COc1ccccc1Cc1nc(-c2ccccc2)nn(C2OC(COC(C)=O)C(OC(C)=O)C(OC(C)=O)C2OC(C)=O)c1=S (centres unmarked) [Compound 625873] | 1.02 | −16.6 | – | –
COC1OC(COCc2ccc(Cl)cc2)C(OCc2ccc(Cl)cc2)C1O (centres unmarked) [Compound 626120] | 0.97 | 15.1 | – | –
O=Cc1cc([N+](=O)[O-])no1 [Compound 626433] | 0.98 | −2.2 | – | –
CC(C)C(=O)OCN(C)c1nc(N(C)COC(=O)C(C)C)nc(N(C)COC(=O)C(C)C)n1 [Compound 626551] | – | – | −24.9 | 0.90
COc1ccc(C2C(C)C(=O)C(C)C(c3ccc(OC)cc3)N2N=O)cc1 (centres unmarked) [Compound 626734] | 1.02 | −18.3 | – | –
COc1ccc2c(c1)-c1nn(CCCN(C)C)c3ccc([N+](=O)[O-])c(c13)N2 [Compound 627168] | 0.53 | 64.3 | – | –
O=[N+]([O-])c1cc(C(F)(F)F)cc2n[se]nc12 [Compound 627371] | 0.92 | −10.1 | – | –
COc1cc2c3c(c1OC)-c1cc4c(cc1CC3(C#N)N(C(=O)c1ccccc1)CC2)OCO4 (centres unmarked) [Compound 627666] | – | – | −3.6 | 0.87
Cc1ccc(S(=O)(=O)c2ccccc2[N+](=O)[O-])cc1 [Compound 627708] | 1.03 | −11.4 | – | –
N#CC1(C#N)C2C=CC(c3coc4cccc2c34)C1(C#N)C#N (centres unmarked) [Compound 629301] | 0.91 | 0.8 | – | –
O=C1c2ccccc2C(=O)c2nc(-c3ccccc3)c(-c3ccccc3)nc21 [Compound 629713] | – | – | −20.3 | 0.90
O=C(NCCCCCCCCNC(=O)c1cccc2ccccc12)c1cccc2ccccc12 [Compound 629738] | 0.97 | 5.9 | – | –
CC[C@@]1(O)C(=O)OCc2c1cc1n(c2=O)Cc2cc3c(N)cccc3nc2-1 [Compound 629971] | – | – | −20.4 | 0.96
O=C(CCc1ccccc1)On1nnc2ccccc2c1=O [Compound 630374] | 0.89 | 1.3 | – | –
Cn1cnc([N+](=O)[O-])c1Sc1nnnn1-c1ccccc1 [Compound 631152] | 0.94 | −7.3 | – | –
Cn1cnc([N+](=O)[O-])c1Sc1nnc(-c2cccnc2)n1C [Compound 631160] | – | – | 9.9 | 0.91
O=C1c2ccccc2C(=O)c2sc(Nc3ccc(Cl)c(Cl)c3)nc21 [Compound 631521] | – | – | −22.6 | 0.93
O=C1c2ccccc2C(=O)c2sc(Nc3ccc(Cl)cc3)nc21 [Compound 631529] | – | – | −28.9 | 1.06
N#CC1=C(N)Oc2c(ccc3cccnc23)C1c1ccccc1 (centres unmarked) [Compound 631583] | 0.98 | 5.1 | – | –
COc1ccc(Cc2nc3ccccc3s2)cc1OC [Compound 632233] | 1.04 | −2.7 | – | –
